# Assay results as given in ChEMBL document CHEMBL6109069 (J Med Chem, 2025).
# Calls of active or inactive are those of the source. The calls are words filed in the database; no cut-off is given here. Non-standard residues stand in square brackets, D forms with d. Residues, ends and D or L forms follow the SMILES beside them. *: point of attachment. Hexenoyl(2E,4S-Me) = CC[C@H](C)/C=C/C(=O)*; Leu(3R-OH) = CC(C)[C@@H](O)[C@H](N)C(=O)O; NH((S)CH(Me)CH2NMe2) = C[C@@H](CN(C)C)N*; NH(2-morpholinoethyl) = C(CN1CCOCC1)N*; Pro(4S-Me) = C[C@@H]1CN[C@H](C(=O)O)C1; NH(1-CH2NMe2-cBu) = CN(C)CC1(N*)CCC1; Gly(octyl) = CCCCCCCC[C@H](N)C(=O)O; Oxazole4CO(2-Me) = Cc1nc(C(=O)*)co1; Benzoyl(4-F) = O=C(c1ccc(F)cc1)*; hCha = N[C@@H](CCC1CCCCC1)C(=O)O; Tle = CC(C)(C)[C@H](N)C(=O)O; NHCH2CH2NMe2 = CN(C)CCN*; Nle = CCCC[C@H](N)C(=O)O; Hexanoyl = CCCCCC(=O)*; Aib = CC(C)(N)C(=O)O; X2 = CN(CCN*)CC(F)F; βAla = NCCC(=O)O; tBu = CC(C)(C)*
# Legend:
# [1] = Inhibition of Bovine heart ATP synthase assessed as inhibition constant by Michaelis-Menten plot analysis; set-up: species or system Bos taurus
# [2] = test system: Lipid bilayer; experiment: Disruption of membrane integrity in bacterial cell membrane mimic POPC/POPG LUVs assessed as calcein leakage at 500 nM measured for 1 mins by fluorescence spectroscopy analysis
# [3] = test system: Trypanosoma brucei rhodesiense; experiment: Antitrypanosomal activity against Trypanosoma brucei rhodesiense STIB 900; type: functional, organism-based
# [4] = test system: Trypanosoma brucei rhodesiense; experiment: Antitrypanosomal activity against Trypanosoma brucei rhodesiense STIB 900 incubated for 72 hrs by resazurin staining based analysis; type: functional, organism-based; conditions: STIB 900, 72 h
# [5] = test system: Plasmodium falciparum; experiment: Antiplasmodial activity against Plasmodium falciparum NF54 incubated for 48 hrs; type: functional, organism-based; conditions: NF54, 48 h
# [6] = test system: Leishmania donovani; experiment: Antitrypanosomal activity against Leishmania donovani MHOM/ET/67/L82 incubated for 72 hrs by resazurin staining based analysis; type: functional, organism-based; conditions: MHOM/ET/67/L82, 72 h
# [7] = test system: Trypanosoma cruzi; experiment: Antitrypanosomal activity against Trypanosoma cruzi Tulahuen C4 incubated for 4 days; type: functional, organism-based; conditions: Tulahuen C4, 96 h
# [8] = Cytotoxicity against rat L6 cells assessed as cell viability incubated for 72 hrs by CCK-8 assay
# [9] = test system: Fibroblast; experiment: Reduction in respiration rate in human Fibroblast cells assessed as decrease in coupling efficiency at 50 nM incubated up to 60 mins; type: functional, cell-based
# [10] = test system: Fibroblast; experiment: Reduction in respiration rate in human Fibroblast cells assessed as decrease in coupling efficiency at > 200 nM incubated up to 60 mins; type: functional, cell-based
# [11] = Cytotoxicity against rat L6 cells assessed as cell viability; type: toxicity, cell-based
Compound,Ki [1],Ki ([1]; read-out: Ki),Activity [2],IC50 [3],IC50 [4],IC50 [5],IC50 [6],IC50 [7],IC50 at 72 h [8],Activity [9],Activity [10],IC50 [11]
N#CC(C#N)=NNc1ccc(OC(F)(F)F)cc1,Not_determined,–,–,–,–,–,–,–,–,–,–,–
CCCCCC(=O)N1CCC[C@H]1C(=O)N[C@@H](CCC1CCCCC1)C(=O)N[C@@H](CC(C)C)C(=O)NC(C)(C)C(=O)N[C@@H](CC(C)C)C(=O)N[C@@H](CC(C)C)C(=O)NC(C)(C)C(=O)NC(C)(C)C(=O)NCCC(=O)N[C@@H](C)CN(C)C (Hexanoyl-P[hCha]L[Aib]LL[Aib][Aib][βAla]-{NH((S)CH(Me)CH2NMe2)}),–,139 nM,–,–,–,–,–,–,–,–,–,–
CC(C)C[C@H](NC(=O)[C@H](CCC1CCCCC1)NC(=O)[C@@H]1CCCN1C(=O)c1ccc(F)cc1)C(=O)NC(C)(C)C(=O)N[C@@H](CC(C)C)C(=O)N[C@@H](CC(C)C)C(=O)NC(C)(C)C(=O)NC(C)(C)C(=O)NCCC(=O)NCCN(C)C ({Benzoyl(4-F)}-P[hCha]L[Aib]LL[Aib][Aib][βAla]-NHCH2CH2NMe2),–,455 nM,Active,3.9 nM,–,–,–,–,–,–,–,–
CC(C)C[C@H](NC(=O)[C@H](CCC1CCCCC1)NC(=O)[C@@H]1CCCN1C(=O)c1ccc(F)cc1)C(=O)NC(C)(C)C(=O)N[C@@H](CC(C)C)C(=O)N[C@@H](CC(C)C)C(=O)NC(C)(C)C(=O)NC(C)(C)C(=O)NCCC(=O)NCCN(C)CC(F)F ({Benzoyl(4-F)}-P[hCha]L[Aib]LL[Aib][Aib][βAla]-X2),–,499 nM,Active,393 nM,–,–,–,–,–,–,–,–
CC(C)C[C@H](NC(=O)[C@H](CCC1CCCCC1)NC(=O)[C@@H]1CCCN1C(=O)c1ccc(F)cc1)C(=O)NC(C)(C)C(=O)N[C@@H](CC(C)C)C(=O)N[C@@H](CC(C)C)C(=O)NC(C)(C)C(=O)NC(C)(C)C(=O)NCCC(=O)NCCN1CCOCC1 ({Benzoyl(4-F)}-P[hCha]L[Aib]LL[Aib][Aib][βAla]-{NH(2-morpholinoethyl)}),–,703 nM,–,72 nM,–,–,–,–,–,–,–,–
CC(C)C[C@H](NC(=O)[C@H](CC(C)C)NC(=O)C(C)(C)NC(=O)[C@@H](NC(=O)[C@H](CCC1CCCCC1)NC(=O)[C@@H]1CCCN1C(=O)c1ccc(F)cc1)[C@H](O)C(C)C)C(=O)NC(C)(C)C(=O)NC(C)(C)C(=O)NCCC(=O)N[C@@H](C)CN(C)C ({Benzoyl(4-F)}-P[hCha][Leu(3R-OH)][Aib]LL[Aib][Aib][βAla]-{NH((S)CH(Me)CH2NMe2)}),–,134 nM,–,–,1.3 nM,3 nM,6.7 nM,1130 nM,1230 nM,–,–,–
CC(C)C[C@H](NC(=O)[C@H](CCC1CCCCC1)NC(=O)[C@@H]1C[C@H](C)CN1C(=O)c1ccc(F)cc1)C(=O)NC(C)(C)C(=O)N[C@@H](CC(C)C)C(=O)N[C@@H](CC(C)C)C(=O)NC(C)(C)C(=O)NC(C)(C)C(=O)NCCC(=O)N[C@@H](C)CN(C)C ({Benzoyl(4-F)}-[Pro(4S-Me)][hCha]L[Aib]LL[Aib][Aib][βAla]-{NH((S)CH(Me)CH2NMe2)}),–,84 nM,–,–,0.3 nM,1.3 nM,0.34 nM,3.9 nM,266 nM,Active,Active,–
CC(C)C[C@H](NC(=O)[C@H](CC(C)C)NC(=O)C(C)(C)NC(=O)[C@@H](NC(=O)[C@H](CCC1CCCCC1)NC(=O)[C@@H]1C[C@H](C)CN1C(=O)c1ccc(F)cc1)[C@H](O)C(C)C)C(=O)NC(C)(C)C(=O)NC(C)(C)C(=O)NCCC(=O)N[C@@H](C)CN(C)C ({Benzoyl(4-F)}-[Pro(4S-Me)][hCha][Leu(3R-OH)][Aib]LL[Aib][Aib][βAla]-{NH((S)CH(Me)CH2NMe2)}),–,55 nM,–,–,0.63 nM,3.4 nM,10 nM,423 nM,1340 nM,Active,Active,–
"CC[C@H](C)/C=C/C(=O)N1CCC[C@H]1C(=O)N[C@@H](CCC1CCCCC1)C(=O)N[C@H](C(=O)NC(C)(C)C(=O)N[C@@H](CC(C)C)C(=O)N[C@@H](CC(C)C)C(=O)NC(C)(C)C(=O)NC(C)(C)C(=O)NCCC(=O)N[C@@H](C)CN(C)C)[C@H](O)C(C)C ({Hexenoyl(2E,4S-Me)}-P[hCha][Leu(3R-OH)][Aib]LL[Aib][Aib][βAla]-{NH((S)CH(Me)CH2NMe2)})",–,29 nM,–,–,0.56 nM,0.52 nM,0.53 nM,180 nM,208 nM,–,–,–
"CCCCCCCC[C@H](NC(=O)[C@@H]1C[C@H](C)CN1C(=O)/C=C/[C@@H](C)CC)C(=O)N[C@H](C(=O)NC(C)(C)C(=O)N[C@@H](CC(C)C)C(=O)N[C@@H](CC(C)C)C(=O)NC(C)(C)C(=O)NC(C)(C)C(=O)NCCC(=O)N[C@@H](C)CN(C)C)[C@H](O)C(C)C ({Hexenoyl(2E,4S-Me)}-[Pro(4S-Me)][Gly(octyl)][Leu(3R-OH)][Aib]LL[Aib][Aib][βAla]-{NH((S)CH(Me)CH2NMe2)})",–,53 nM,–,–,0.34 nM,0.34 nM,0.69 nM,24 nM,77 nM,–,–,–
"CC[C@H](C)/C=C/C(=O)N1C[C@@H](C)C[C@H]1C(=O)N[C@@H](CCC1CCCCC1)C(=O)N[C@@H](CC(C)C)C(=O)NC(C)(C)C(=O)N[C@@H](CC(C)C)C(=O)N[C@@H](CC(C)C)C(=O)NC(C)(C)C(=O)NC(C)(C)C(=O)NCCC(=O)N[C@@H](C)CN(C)C ({Hexenoyl(2E,4S-Me)}-[Pro(4S-Me)][hCha]L[Aib]LL[Aib][Aib][βAla]-{NH((S)CH(Me)CH2NMe2)})",–,107 nM,–,–,0.26 nM,0.69 nM,1.3 nM,43 nM,157 nM,–,Active,–
Cc1nc(C(=O)N2CCC[C@H]2C(=O)N[C@@H](COC(C)(C)C)C(=O)N[C@@H](CC(C)C)C(=O)NC(C)(C)C(=O)N[C@@H](CC(C)C)C(=O)N[C@@H](CC(C)C)C(=O)NC(C)(C)C(=O)NC(C)(C)C(=O)NCCC(=O)NC2(CN(C)C)CCC2)co1 ({Oxazole4CO(2-Me)}-PS(tBu)L[Aib]LL[Aib][Aib][βAla]-{NH(1-CH2NMe2-cBu)}),–,18100 nM,–,3.9 nM,–,272 nM,166 nM,6410 nM,–,–,–,> 8750 nM
Cc1nc(C(=O)N2CCC[C@H]2C(=O)N[C@@H](Cc2c[nH]c3ccccc23)C(=O)N[C@@H](CC(C)C)C(=O)NC(C)(C)C(=O)N[C@@H](CC(C)C)C(=O)N[C@@H](CC(C)C)C(=O)NC(C)(C)C(=O)NC(C)(C)C(=O)NCCC(=O)NC2(CN(C)C)CCC2)co1 ({Oxazole4CO(2-Me)}-PWL[Aib]LL[Aib][Aib][βAla]-{NH(1-CH2NMe2-cBu)}),–,–,–,1.3 nM,–,18 nM,31 nM,2700 nM,–,–,–,–
CCCC[C@H](NC(=O)[C@@H]1CCCN1C(=O)c1coc(C)n1)C(=O)N[C@@H](CC(C)C)C(=O)NC(C)(C)C(=O)N[C@@H](CC(C)C)C(=O)N[C@@H](CC(C)C)C(=O)NC(C)(C)C(=O)NC(C)(C)C(=O)NCCC(=O)NC1(CN(C)C)CCC1 ({Oxazole4CO(2-Me)}-P[Nle]L[Aib]LL[Aib][Aib][βAla]-{NH(1-CH2NMe2-cBu)}),–,–,–,6.5 nM,–,118 nM,1530 nM,5910 nM,–,–,–,> 8750 nM
Cc1nc(C(=O)N2CCC[C@H]2C(=O)N[C@H](C(=O)N[C@@H](CC(C)C)C(=O)NC(C)(C)C(=O)N[C@@H](CC(C)C)C(=O)N[C@@H](CC(C)C)C(=O)NC(C)(C)C(=O)NC(C)(C)C(=O)NCCC(=O)NC2(CN(C)C)CCC2)C(C)(C)C)co1 ({Oxazole4CO(2-Me)}-P[Tle]L[Aib]LL[Aib][Aib][βAla]-{NH(1-CH2NMe2-cBu)}),–,16200 nM,–,4.1 nM,–,212 nM,1190 nM,6520 nM,–,–,–,> 8980 nM
Cc1nc(C(=O)N2CCC[C@H]2C(=O)N[C@@H](CCC2CCCCC2)C(=O)N[C@@H](CC(C)C)C(=O)NC(C)(C)C(=O)N[C@@H](CC(C)C)C(=O)N[C@@H](CC(C)C)C(=O)NC(C)(C)C(=O)NC(C)(C)C(=O)NCCC(=O)NC2(CN(C)C)CCC2)co1 ({Oxazole4CO(2-Me)}-P[hCha]L[Aib]LL[Aib][Aib][βAla]-{NH(1-CH2NMe2-cBu)}),–,–,–,0.76 nM,–,4.8 nM,11 nM,193 nM,–,–,–,–
